Measurements from patent US20180055032A1, “ODORS FOR PSYLLID TRAPPING, REPELLING AND CONTROL” (The Regents of the University of California, priority 2011, published 2018).
Like-named read-outs stand apart in the source and are kept apart here.

Experiments:
Format in all cases: cell-based, Diaphorina citri
[1] = tested on: neuron 6A (rhinarial plate on flagellomere 6); test: single-sensillum electrophysiology, odor response of neuron 6A; conditions: for response to inhibitory odors, 6A: Table 2, odor diluted to 10^−2, 50 μL in cartridge; for odor response (frequency of action potentials during stimulus minus baseline), 6A: Table 1, odor diluted to 1%, 50 μL in cartridge; as to response to inhibitory odors, 6A: key: 0, no response; +, >50 spikes/second; ++, >100 spikes/second; +++, >150 spikes/second
[2] = tested on: neuron 4C (rhinarial plate on flagellomere 4); test: single-sensillum electrophysiology, odor response of neuron 4C; conditions: for response to inhibitory odors, 4C: Table 2, odor diluted to 10^−2, 50 μL in cartridge; as to response to inhibitory odors, 4C: key: 0, no response; +, >50 spikes/second; ++, >100 spikes/second; +++, >150 spikes/second
[3] = tested on: neuron 6B (rhinarial plate on flagellomere 6); test: single-sensillum electrophysiology, odor response of neuron 6B; conditions: for response to inhibitory odors, 6B: Table 2, odor diluted to 10^−2, 50 μL in cartridge; for odor response (frequency of action potentials during stimulus minus baseline), 6B: Table 1, odor diluted to 1%, 50 μL in cartridge
[4] = tested on: neuron 7B (rhinarial plate on flagellomere 7); conditions: for odor response (frequency of action potentials during stimulus minus baseline), 7B: Table 1, odor diluted to 1%, 50 μL in cartridge
[5] = tested on: neuron 2C (rhinarial plate on flagellomere 2); test: single-sensillum electrophysiology, odor response of neuron 2C; conditions: for response to inhibitory odors, 2C: Table 2, odor diluted to 10^−2, 50 μL in cartridge; for odor response (frequency of action potentials during stimulus minus baseline), 2C: Table 1, odor diluted to 1%, 50 μL in cartridge
[6] = tested on: neuron 7A (rhinarial plate on flagellomere 7); test: single-sensillum electrophysiology, odor response of neuron 7A; conditions: for response to inhibitory odors, 7A: Table 2, odor diluted to 10^−2, 50 μL in cartridge; for odor response (frequency of action potentials during stimulus minus baseline), 7A: Table 1, odor diluted to 1%, 50 μL in cartridge; as to all read-outs here: key: 0, no response; +, >50 spikes/second; ++, >100 spikes/second; +++, >150 spikes/second
[7] = tested on: neuron 4A (rhinarial plate on flagellomere 4); test: single-sensillum electrophysiology, odor response of neuron 4A; conditions: for response to inhibitory odors, 4A: Table 2, odor diluted to 10^−2, 50 μL in cartridge; for odor response (frequency of action potentials during stimulus minus baseline), 4A: Table 1, odor diluted to 1%, 50 μL in cartridge
[8] = tested on: neuron 2A (rhinarial plate on flagellomere 2); test: single-sensillum electrophysiology, odor response of neuron 2A; conditions: for response to inhibitory odors, 2A: Table 2, odor diluted to 10^−2, 50 μL in cartridge; for odor response (frequency of action potentials during stimulus minus baseline), 2A: Table 1, odor diluted to 1%, 50 μL in cartridge; as to all read-outs here: key: 0, no response; +, >50 spikes/second; ++, >100 spikes/second; +++, >150 spikes/second
[9] = tested on: neuron 4B (rhinarial plate on flagellomere 4); conditions: for odor response (frequency of action potentials during stimulus minus baseline), 4B: Table 1, odor diluted to 1%, 50 μL in cartridge
[10] = tested on: neuron 6C (rhinarial plate on flagellomere 6); test: single-sensillum electrophysiology, odor response of neuron 6C; conditions: for response to inhibitory odors, 6C: Table 2, odor diluted to 10^−2, 50 μL in cartridge; for odor response (frequency of action potentials during stimulus minus baseline), 6C: Table 1, odor diluted to 1%, 50 μL in cartridge
[11] = tested on: neuron 2B (rhinarial plate on flagellomere 2); test: single-sensillum electrophysiology, odor response of neuron 2B; conditions: for response to inhibitory odors, 2B: Table 2, odor diluted to 10^−2, 50 μL in cartridge; for odor response (frequency of action potentials during stimulus minus baseline), 2B: Table 1, odor diluted to 1%, 50 μL in cartridge
[12] = tested on: neuron 7C (rhinarial plate on flagellomere 7); test: single-sensillum electrophysiology, odor response of neuron 7C; conditions: for odor response (frequency of action potentials during stimulus minus baseline), 7C: Table 1, odor diluted to 1%, 50 μL in cartridge; for response to inhibitory odors, 7C: Table 2, odor diluted to 10^−2, 50 μL in cartridge
[13] = Table 2, odor diluted to 10^−2, 50 μL in cartridge

Structure (SMILES) | response to inhibitory odors, 6A [1] | response to inhibitory odors, 4C [2] | response to inhibitory odors, 6B [3] | response to inhibitory odors, 7B [4, 13] | response to inhibitory odors, 2C [5] | response to inhibitory odors, 7A [6] | response to inhibitory odors, 4A [7] | response to inhibitory odors, 2A [8] | response to inhibitory odors, 4B [9, 13] | response to inhibitory odors, 6C [10] | response to inhibitory odors, 2B [11] | response to inhibitory odors, 7C [12] | further results
CN1CCCCC1 [N-methylpiperidine] | 0 | 0 | 0 | 0 | 0 | 0 | 0 | 0 | 0 | 0 | 0 |  | 
C=C1CC[C@H]2C[C@@H]1C2(C)C [(−)-β-pinene] |  |  |  |  |  |  |  |  |  |  |  |  | odor response (frequency of action potentials during stimulus minus baseline), 6A [1]: 0; odor response (frequency of action potentials during stimulus minus baseline), 6B [3]: + (+, >50 spikes/second); odor response (frequency of action potentials during stimulus minus baseline), 7B [4]: 0; odor response (frequency of action potentials during stimulus minus baseline), 2C [5]: 0; odor response (frequency of action potentials during stimulus minus baseline), 7A [6]: 0; odor response (frequency of action potentials during stimulus minus baseline), 7C [12]: 0; odor response (frequency of action potentials during stimulus minus baseline), 4A [7]: 0; odor response (frequency of action potentials during stimulus minus baseline), 2A [8]: 0; odor response (frequency of action potentials during stimulus minus baseline), 4B [9]: + (+, >50 spikes/second); odor response (frequency of action potentials during stimulus minus baseline), 6C [10]: 0; odor response (frequency of action potentials during stimulus minus baseline), 2B [11]: 0
CC(=O)C(C)=O [2,3-butanedione] | 0 | 0 | 0 | 0 | 0 | 0 | 0 | 0 | 0 | 0 |  | 0 | 
CC(C)C(=O)O [isobutyric acid] | 0 |  | 0 | 0 | 0 | 0 | 0 | 0 |  |  | 0 | 0 | 
CCC(=O)O [propionic acid] | 0 | 0 |  | 0 | 0 | 0 | 0 | 0 |  | 0 | 0 | 0 | 
CC1=CC[C@H]2C[C@@H]1C2(C)C [(−)-α-pinene] |  |  |  |  |  |  |  |  |  |  |  |  | odor response (frequency of action potentials during stimulus minus baseline), 6A [1]: 0; odor response (frequency of action potentials during stimulus minus baseline), 6B [3]: + (+, >50 spikes/second); odor response (frequency of action potentials during stimulus minus baseline), 7B [4]: 0; odor response (frequency of action potentials during stimulus minus baseline), 2C [5]: 0; odor response (frequency of action potentials during stimulus minus baseline), 7A [6]: 0; odor response (frequency of action potentials during stimulus minus baseline), 7C [12]: 0; odor response (frequency of action potentials during stimulus minus baseline), 4A [7]: 0; odor response (frequency of action potentials during stimulus minus baseline), 2A [8]: 0; odor response (frequency of action potentials during stimulus minus baseline), 4B [9]: + (+, >50 spikes/second); odor response (frequency of action potentials during stimulus minus baseline), 6C [10]: 0; odor response (frequency of action potentials during stimulus minus baseline), 2B [11]: 0
CCCCCN [pentylamine] | 0 |  | 0 | 0 | 0 | 0 | 0 | 0 | 0 | 0 |  | 0 | 
C=C(C)C1CC=C(C=O)CC1 (centres unmarked) [perillaldehyde] | 0 | 0 | 0 | 0 |  | 0 | 0 | 0 | 0 | 0 | 0 | 0 | odor response (frequency of action potentials during stimulus minus baseline), 6A [1]: 0; odor response (frequency of action potentials during stimulus minus baseline), 4C ([2]; Table 1, odor diluted to 1%, 50 μL in cartridge): 0; odor response (frequency of action potentials during stimulus minus baseline), 6B [3]: + (+, >50 spikes/second); odor response (frequency of action potentials during stimulus minus baseline), 7B [4]: 0; odor response (frequency of action potentials during stimulus minus baseline), 7A [6]: 0; odor response (frequency of action potentials during stimulus minus baseline), 7C [12]: 0; odor response (frequency of action potentials during stimulus minus baseline), 4A [7]: 0; odor response (frequency of action potentials during stimulus minus baseline), 2A [8]: 0; odor response (frequency of action potentials during stimulus minus baseline), 4B [9]: + (+, >50 spikes/second); odor response (frequency of action potentials during stimulus minus baseline), 6C [10]: 0; odor response (frequency of action potentials during stimulus minus baseline), 2B [11]: 0
CCCCCCCCOC(C)=O [n-octyl acetate] | 0 | 0 | 0 | 0 | 0 | 0 | 0 | 0 |  | 0 | 0 | 0 | 
c1ccncc1 [pyridine] | 0 |  | 0 |  | 0 | 0 | 0 | 0 |  | 0 | 0 | 0 | response to inhibitory odors, 7B [4]: 0; response to inhibitory odors, 4B [9]: 0
CC1CC(=O)O1 (stereo not drawn) [β-butyrolactone] | 0 | 0 | 0 | 0 | 0 | 0 | 0 | 0 |  | 0 | 0 | 0 | 
CNC [dimethyl amine] | 0 | 0 | 0 |  | 0 | 0 | 0 | 0 |  |  | 0 |  | response to inhibitory odors, 7B [4]: 0; response to inhibitory odors, 4B [9]: 0
CCCCC(=O)O [pentanoic acid] | 0 | 0 | 0 |  | 0 | 0 | 0 | 0 | 0 | 0 | 0 | 0 | 
CCCCCCN [hexylamine] | 0 |  | 0 | 0 | 0 | 0 | 0 | 0 | 0 | 0 | 0 | 0 | 
CC(=O)O [acetic acid] | 0 | 0 |  |  | 0 | 0 | 0 | 0 |  | 0 | 0 |  | response to inhibitory odors, 7B [4]: 0
CCCCCC(=O)OCC [ethyl hexanoate] | 0 | 0 | 0 | 0 | 0 | 0 | 0 | 0 | 0 | 0 | 0 |  | 
Cl.Cl.NCCCCN [putrescine dihydrochloride] | 0 | 0 | 0 |  | 0 | 0 | 0 | 0 |  | 0 |  | 0 | response to inhibitory odors, 7B [4]: 0; response to inhibitory odors, 4B [9]: 0
